Tests used:
MV4;11 WT cells = experiment: CellTiter-Glo cell viability, WT MV4; type: cell-based, human; settings: CTG, 24 h
recombinant human PEPD = target: T1, recombinant human PEPD (Homo sapiens, UniProt P12955); experiment: Inhibition of recombinant PEPD, alanine release assay; type: biochemical
T1 sequence (P12955 1-493): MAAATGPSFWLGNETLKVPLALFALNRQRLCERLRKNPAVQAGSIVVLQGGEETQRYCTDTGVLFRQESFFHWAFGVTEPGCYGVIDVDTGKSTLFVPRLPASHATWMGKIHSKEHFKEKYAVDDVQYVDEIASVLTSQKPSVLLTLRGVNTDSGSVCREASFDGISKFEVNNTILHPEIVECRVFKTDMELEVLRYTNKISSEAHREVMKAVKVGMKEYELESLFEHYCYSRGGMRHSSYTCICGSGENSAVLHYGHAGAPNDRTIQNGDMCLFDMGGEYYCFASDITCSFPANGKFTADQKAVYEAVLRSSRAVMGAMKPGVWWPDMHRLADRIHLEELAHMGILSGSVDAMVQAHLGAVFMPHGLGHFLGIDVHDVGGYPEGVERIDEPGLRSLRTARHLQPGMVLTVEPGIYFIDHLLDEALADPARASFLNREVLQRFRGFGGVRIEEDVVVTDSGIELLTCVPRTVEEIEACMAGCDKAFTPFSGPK

recombinant XPNPEP1 = recombinant XPNPEP1 (Homo sapiens, UniProt Q9NQW7); experiment: Inhibition of recombinant XPNPEP1, H-Lys; type: biochemical; settings: recombinant XPNPEP1
recombinant XPNPEP1, sequence (Q9NQW7 whole entry): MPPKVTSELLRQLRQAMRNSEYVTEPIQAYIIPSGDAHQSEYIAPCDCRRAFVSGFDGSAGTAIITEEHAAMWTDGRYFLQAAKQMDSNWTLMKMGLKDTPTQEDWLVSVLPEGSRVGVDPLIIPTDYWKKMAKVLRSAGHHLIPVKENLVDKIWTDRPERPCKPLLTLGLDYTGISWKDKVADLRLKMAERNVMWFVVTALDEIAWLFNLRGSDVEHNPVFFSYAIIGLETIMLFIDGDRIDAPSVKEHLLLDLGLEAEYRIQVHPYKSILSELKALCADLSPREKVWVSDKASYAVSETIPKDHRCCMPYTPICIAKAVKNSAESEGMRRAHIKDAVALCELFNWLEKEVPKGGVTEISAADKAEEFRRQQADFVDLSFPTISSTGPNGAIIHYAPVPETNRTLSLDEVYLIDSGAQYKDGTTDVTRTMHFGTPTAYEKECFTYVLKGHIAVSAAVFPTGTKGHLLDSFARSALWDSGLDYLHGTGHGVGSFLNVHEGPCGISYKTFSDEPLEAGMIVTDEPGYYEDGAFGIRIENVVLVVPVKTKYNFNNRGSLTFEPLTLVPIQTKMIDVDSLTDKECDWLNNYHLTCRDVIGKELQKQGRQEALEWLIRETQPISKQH

Compound | Cytotoxicity / activity against MV4;11 cells (in words) (MV4;11 WT cells) | PEPD inhibition (in words) (recombinant human PEPD) | XPNPEP1 inhibition (in words) (recombinant XPNPEP1)
COC(=O)[C@@H]1CCCN1C(=O)[C@@H](O)[C@H](N)Cc1ccccc1 [CQ42, Methyl ((2S,3R)-3-Amino-2-hydroxy-4-phenylbutanoyl)-l-prolinate] | almost completely inactive |  | 
CONC(=O)[C@@H]1CCCN1C(=O)[C@@H](O)[C@H](N)CC(C)C [CQ55, (S)-1-((2S,3R)-3-Amino-2-hydroxy-5-methylhexanoyl)-N-methoxypyrrolidine-2-carboxamide] | completely inactive in cells |  | 
CC(C)C[C@@H](N)[C@H](O)C(=O)N1CCC[C@H]1c1nnn[nH]1 [CQ99, (2S,3R)-1-((S)-2-(1H-Tetrazol-5-yl)pyrrolidin-1-yl)-3-amino-2-hydroxy-5-methylhexan-1-one] | completely inactive in cells |  | 
CC(C)C[C@@H](N)[C@H](O)C(=O)N1CCCC1 [CQ76, (2S,3R)-3-Amino-2-hydroxy-5-methyl-1-(pyrrolidin-1-yl)hexan-1-one] | abrogated all activity |  | 
CC(C)C[C@@H](N)C(O)C(=O)N1CCC[C@H]1C(=O)O (stereo partly drawn) [CQ04, (2S,3R)-3-amino-2-hydroxy-5-methyl-hexanoyl-proline] |  | more potent than CQ31 | more potent than CQ31
COC(=O)[C@@H]1C[C@H](O)CN1C(=O)[C@@H](O)[C@H](N)CC(C)C [CQ39, Methyl (2S,4S)-1-((2S,3R)-3-Amino-2-hydroxy-5-methylhexano-yl)-4-hydroxypyrrolidine-2-carboxylate] | completely inactive |  | 
CC(C)C[C@H](NC(=O)[C@@H]1CCCN1C(=O)[C@@H](O)[C@H](N)CC(C)C)C(=O)O [CQ92] |  | more potent inhibitor of both PEPD and XPNPEP1 than CQ80 | more potent inhibitor of both PEPD and XPNPEP1 than CQ80
COC(=O)[C@@H]1CCCN1C(=O)[C@@H](O)[C@H](N)CCCCO [CQ75] | lost cytotoxicity | retained PEPD inhibition | 
CC(C)C[C@@H](N)[C@H](O)C(=O)N1CCC[C@H]1C(=O)OC1CCCC1 [CQ94, Cyclopentyl ((2S,3R)-3-Amino-2-hydroxy-5-methylhexanoyl)-L-prolinate] | slightly more toxic | inhibited PEPD and XPNPEP1 similarly | inhibited PEPD and XPNPEP1 similarly
COC(=O)[C@@H]1CCCN1C(=O)[C@@H](O)[C@H](N)C1CC1 [CQ62, Methyl ((2S,3R)-3-Amino-3-cyclopropyl-2-hydroxypropanoyl)-l-prolinate] | almost completely inactive |  | 
CC(C)C[C@@H](N)[C@H](O)C(=O)N1CCC[C@H]1CNS(C)(=O)=O [CQ53, N-(((S)-1-((2S,3R)-3-Amino-2-hydroxy-5-methylhexanoyl)-pyrrolidin-2-yl)methyl)methanesulfon-amide] | completely inactive in cells |  | 
CC(C)C[C@@H](N)[C@H](O)C(=O)N1CCC[C@H]1C(N)=O [CQ49, (S)-1-((2S,3R)-3-Amino-2-hydroxy-5-methylhexanoyl)-pyrrolidine-2-carboxamide] | retained similar PEPD/XPNPEP1 inhibition and cytotoxicity as CQ31 |  | 
COC(=O)[C@@H]1CCCN1C(=O)[C@@H](O)[C@H](N)C12CC3CC(CC(C3)C1)C2 [CQ47, Methyl ((2S,3R)-3-(Adamantan-1-yl)-3-amino-2-hydroxypropanoyl)-l-prolinate] | almost completely inactive |  | 
CC(C)CCNC(=O)[C@@H]1CCCN1C(=O)[C@@H](O)[C@H](N)CC(C)C [CQ95, (S)-1-((2S,3R)-3-Amino-2-hydroxy-5-methylhexanoyl)-N-isopentylpyrrolidine-2-carboxamide] | retained similar PEPD/XPNPEP1 inhibition and cytotoxicity as CQ31 |  | 
